Measured values reported in ChEMBL document CHEMBL5512667, “Discovery of Potent, Selective, and Orally Available IRE1α Inhibitors Demonstrating Comparable PD Modulation to IRE1 Knockdown in a Multiple Myeloma Model” (J Med Chem, 2024).
Values after ≈ are worked out from the molar mass of the structure shown. Values belong to the compound of their own block, whether it stands above or below them. Active and inactive are the calls of the source. No cut-off for these calls is given here.

Assays:
[1] = target: T1, Serine/threonine-protein kinase/endoribonuclease IRE1 (Homo sapiens, UniProt O75460); experiment: Inhibition of IRE1alpha RNase activity (unknown origin) using XBP1 as substrate preincubated for 1 hr followed by thapsigargin stimulation for 5 hrs by One-Glo luciferase reagent based luminescence assay
Target sequence in this assay (O75460 whole entry, the tested form may be a part): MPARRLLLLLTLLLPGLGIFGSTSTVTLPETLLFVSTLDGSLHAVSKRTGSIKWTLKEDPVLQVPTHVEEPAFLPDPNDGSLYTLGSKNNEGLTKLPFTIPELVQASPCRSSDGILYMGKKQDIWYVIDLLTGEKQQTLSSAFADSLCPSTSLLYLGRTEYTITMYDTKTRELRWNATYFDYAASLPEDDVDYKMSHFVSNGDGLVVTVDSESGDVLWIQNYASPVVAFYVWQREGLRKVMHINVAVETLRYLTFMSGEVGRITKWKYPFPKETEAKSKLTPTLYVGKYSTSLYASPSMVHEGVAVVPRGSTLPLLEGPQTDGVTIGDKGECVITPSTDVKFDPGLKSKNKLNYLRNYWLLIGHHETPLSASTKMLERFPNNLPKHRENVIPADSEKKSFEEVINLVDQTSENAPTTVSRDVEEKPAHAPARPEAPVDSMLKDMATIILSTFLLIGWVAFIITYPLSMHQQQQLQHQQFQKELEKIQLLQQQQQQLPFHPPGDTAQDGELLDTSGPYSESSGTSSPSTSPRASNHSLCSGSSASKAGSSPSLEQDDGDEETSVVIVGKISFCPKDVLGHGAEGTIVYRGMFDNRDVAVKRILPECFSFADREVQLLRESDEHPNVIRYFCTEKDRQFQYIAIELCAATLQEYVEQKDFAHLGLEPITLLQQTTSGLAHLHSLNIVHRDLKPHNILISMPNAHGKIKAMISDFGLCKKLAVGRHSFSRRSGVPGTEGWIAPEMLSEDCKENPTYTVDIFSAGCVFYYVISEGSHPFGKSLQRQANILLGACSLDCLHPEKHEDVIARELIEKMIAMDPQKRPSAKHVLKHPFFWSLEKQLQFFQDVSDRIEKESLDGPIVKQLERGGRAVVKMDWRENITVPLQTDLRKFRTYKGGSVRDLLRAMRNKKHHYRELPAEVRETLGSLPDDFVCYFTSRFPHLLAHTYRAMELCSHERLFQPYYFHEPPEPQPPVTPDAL

[2] = target: T1, Serine/threonine-protein kinase/endoribonuclease IRE1; experiment: Inhibition of IRE1alpha RNase activity (Q470 to L977 residues) (unknown origin) expressed in Sf9 cells using mini-XBP-1 stem-loop RNA as substrate measured every 2 mins interval for 50 mins by FRET assay
Target sequence in this assay (O75460 whole entry, the tested form may be a part): as above

[3] = target: T1, Serine/threonine-protein kinase/endoribonuclease IRE1; experiment: Inhibition of His-tagged IRE1alpha (G547 to L977 residues) (unknown origin) expressed in Sf9 cells preincubated with anti-His Europium labeled antibody for 1 hr prior to compound addition followed by tracer 236 addition and measured after 1 hr by TR-FRET assay
Target sequence in this assay (O75460 whole entry, the tested form may be a part): as above

[4] = Permeability across apical to basolateral side in MDCK cells; assay type: ADME, cell-based, Canis lupus familiaris; conditions: dog, read-out: permeability
[5] = Apparent permeability across apical to basolateral side in MDCK cells at 10 uM incubated for 3 hrs by LC-MS/MS method; assay type: ADME, cell-based, Canis lupus familiaris; conditions: dog
[6] = Selectivity ratio of inhibition of HIPK4 (unknown origin) to inhibition of IRE1alpha (unknown origin)
[7] = Toxicity in Sprague-Dawley rat assessed as hepatocellular hypertrophy at >= 150 mg/kg, po administered twice daily for 7 days; assay type: organism-based; conditions: in vivo, 168 h, time 7 day
[8] = Toxicity in Sprague-Dawley rat assessed as increase in hepatic weight at >= 150 mg/kg, po administered twice daily for 7 days; assay type: organism-based; conditions: in vivo, 168 h, time 7 day
[9] = Toxicity in Sprague-Dawley rat assessed as increase in hepatic enzyme level at 500 mg/kg, po administered twice daily for 7 days; assay type: organism-based; conditions: in vivo, 168 h, time 7 day
[10] = Toxicity in Sprague-Dawley rat assessed as tolerability upto 500 mg/kg, po administered twice daily for 7 days; assay type: organism-based; conditions: in vivo, 168 h, time 7 day
[11] = Plasma protein binding in mouse incubated for 4 hrs by LC-MS/MS based rapid equilibrium dialysis method; assay type: ADME, cell-free; conditions: read-out: PPB (converted)
[12] = Kinetic solubility of compound at pH 7.4; assay type: physicochemical; conditions: buffer, read-out: Kinetic_solubility
[13] = Volume of distribution at steady state in CD-1 mouse at 10 mg/kg, po or 1 mg/kg, iv measured upto 24 hrs by LC-MS/MS analysis; assay type: ADME, organism-based; conditions: in vivo
[14] = Half-life in CD-1 mouse at 10 mg/kg, po or 1 mg/kg, iv measured upto 24 hrs by LC-MS/MS analysis; assay type: ADME, organism-based; conditions: in vivo
[15] = Bioavailability in CD-1 mouse at 10 mg/kg, po or 1 mg/kg, iv measured upto 24 hrs by LC-MS/MS analysis; assay type: ADME, organism-based; conditions: in vivo
[16] = Toxicity in Sprague-Dawley rat assessed as decrease in thymus weight at 500 mg/kg, po administered twice daily for 7 days; assay type: organism-based; conditions: in vivo, 168 h, time 7 day
[17] = Toxicity in Sprague-Dawley rat assessed as decrease in thymic lymphoid depletion at 500 mg/kg, po administered twice daily for 7 days; assay type: organism-based; conditions: in vivo, 168 h, time 7 day
[18] = Cmax in Sprague-Dawley rat at 500 mg/kg, po administered twice daily for 7 days; assay type: ADME, organism-based; conditions: in vivo, time 7 day
[19] = AUC in Sprague-Dawley rat at 500 mg/kg, po administered twice daily for 7 days; assay type: ADME, organism-based; conditions: in vivo, time 7 day
[20] = Cmax in Sprague-Dawley rat at >= 150 mg/kg, po administered twice daily for 7 days; assay type: ADME, organism-based; conditions: in vivo, time 7 day
[21] = AUC in Sprague-Dawley rat at >= 150 mg/kg, po administered twice daily for 7 days; assay type: ADME, organism-based; conditions: in vivo, time 7 day
[22] = target: T1, Serine/threonine-protein kinase/endoribonuclease IRE1; experiment: Inhibition of IRE1alpha in human KMS-11 cells assessed as reduction in XBP1 splicing preincubated for 24 hrs followed by thapsigargin addition and measured after 30 mins by luminescence assay; assay type: cell-based
[23] = target: T1, Serine/threonine-protein kinase/endoribonuclease IRE1; experiment: Inhibition of IRE1alpha in human KMS-11 cells assessed as reduction in XBP1 splicing preincubated for 24 hrs followed by thapsigargin addition and measured after 30 mins under FCS medium by luminescence assay; assay type: cell-based
[24] = target: T1, Serine/threonine-protein kinase/endoribonuclease IRE1; experiment: Inhibition of IRE1alpha RNase activity (unknown origin) using XBP1 as substrate preincubated for 1 hr followed by thapsigargin stimulation for 5 hrs under FCS medium by One-Glo luciferase reagent based luminescence assay
Target sequence in this assay (O75460 whole entry, the tested form may be a part): as above

Mus musculus [25] = experiment: In vivo inhibition of IRE1alpha in SCID mouse xenografted with human KMS-11 cells assessed as suppression of XBP1 level in tumor at 250 mg/kg, po BID measured upto 12 hrs; assay type: functional, organism-based
Mus musculus [26] = experiment: In vivo inhibition of IRE1alpha in SCID mouse xenografted with human KMS-11 cells assessed as suppression of XBP1 level in tumor at 250 mg/kg, po BID measured after 16 to 24 hrs; assay type: functional, organism-based; conditions: time 16-24 hrs

- IC50 [1]: 18 nM
- IC50 [2]: 17 nM
- IC50 [3]: 0.35 nM
SMILES: Cc1ccc2c(NS(=O)(=O)Cc3ccccc3)cccc2c1Oc1ncccc1-c1ccnc(N[C@H]2CCCNC2)n1

- IC50 [1]: 140 nM
- IC50 [2]: 6.3 nM
- IC50 [3]: 4.7 nM
SMILES: CCCS(=O)(=O)Nc1cccc2c(Oc3ncccc3-c3ccnc(N[C@H]4CCCNC4)n3)c(C)ccc12

- IC50 [1]: 9000 nM
- IC50 [2]: 2100 nM
- IC50 [3]: 65 nM
SMILES: Cc1ccc2c(NS(=O)(=O)c3ccccc3Cl)cccc2c1Oc1ncccc1-c1ccnc(NC2CCC(=O)NC2)n1 (stereo not given)

- IC50 [1]: 40 nM
- IC50 [2]: 9.2 nM
- IC50 [3]: 0.48 nM
- Papp A→B [4]: 1 ×10⁻⁶ cm/s
SMILES: Cc1ccc2c(NS(=O)(=O)c3ccccc3Cl)cccc2c1Oc1ncccc1-c1ccnc(N[C@H]2CCCNC2)n1

- IC50 [1]: 1300 nM
- IC50 [2]: 24 nM
- IC50 [3]: 2.1 nM
SMILES: Cc1ccc2c(NS(=O)(=O)CC3CCCCC3)cccc2c1Oc1ncccc1-c1ccnc(N[C@H]2CCCNC2)n1

- IC50 [1]: 31 nM
- IC50 [2]: 5.4 nM
- IC50 [3]: 0.38 nM
SMILES: Cc1cc(NS(=O)(=O)Cc2ccccc2)c2ccccc2c1Oc1ncccc1-c1ccnc(N[C@H]2CCCNC2)n1

- IC50 [1]: 2300 nM
- IC50 [2]: 420 nM
- IC50 [3]: 46 nM
SMILES: Cc1ccc2c(NS(=O)(=O)c3ccccc3Cl)cccc2c1Oc1ncccc1-c1ccnc(N[C@@H]2CCCNC2)n1

- IC50 [1]: 200 nM
- IC50 [2]: 13 nM
- IC50 [3]: 3.3 nM
SMILES: Cc1ccc2c(NS(=O)(=O)C3CCCC3)cccc2c1Oc1ncccc1-c1ccnc(N[C@H]2CCCNC2)n1

- Papp A→B at 3 h, 10 µM [5]: 2 ×10⁻⁶ cm/s
- IC50 [1]: 330 nM
- IC50 [2]: 24 nM
- IC50 [3]: 1.8 nM
SMILES: Cc1c(Oc2ncccc2-c2ccnc(N[C@H]3CCCNC3)n2)ccc(NS(=O)(=O)Cc2ccccc2)c1F

- IC50 [1]: 2300 nM
- IC50 [2]: 250 nM
- IC50 [3]: 17 nM
SMILES: Cc1ccc2c(NS(=O)(=O)c3ccccc3Cl)cccc2c1Oc1ncccc1-c1ccnc(N[C@@H]2CNCC(F)(F)C2)n1

Second part, the compound before the results:

SMILES: O=S(=O)(Cc1ccccc1)Nc1c(F)cc(Oc2ncccc2-c2ccnc(N[C@@H]3CNC[C@@H](CF)C3)n2)c(F)c1F
- IC50 [1]: 540 nM
- IC50 [2]: 15 nM
- IC50 [3]: 0.78 nM

SMILES: Cc1cc(Oc2ncccc2-c2ccnc(N[C@H]3CCCNC3)n2)c(F)c(F)c1NS(=O)(=O)Cc1ccccc1
- Papp A→B at 3 h, 10 µM [5]: 2.8 ×10⁻⁶ cm/s
- IC50 [1]: 44 nM
- IC50 [2]: 4.5 nM
- IC50 [3]: 0.29 nM

SMILES: Cc1c(Oc2ncccc2-c2ccnc(N[C@H]3CCCNC3)n2)cc(F)c(NS(=O)(=O)Cc2ccccc2)c1F
- Papp A→B at 3 h, 10 µM [5]: 1.1 ×10⁻⁶ cm/s
- IC50 [1]: 37 nM
- IC50 [2]: 29 nM
- IC50 [3]: 0.29 nM

SMILES: O=S(=O)(Cc1ccccc1)Nc1c(F)cc(Oc2ncccc2-c2ccnc(N[C@@H]3CNC[C@H](F)C3)n2)c(F)c1F
- IC50 [1]: 2700 nM
- IC50 [2]: 23 nM
- IC50 [3]: 2 nM

SMILES: O=S(=O)(Cc1ccccc1)Nc1ccc(Oc2ncccc2-c2ccnc(N[C@H]3CCCNC3)n2)c(F)c1F
- Papp A→B at 3 h, 10 µM [5]: 2.1 ×10⁻⁶ cm/s
- IC50 [1]: 88 nM
- IC50 [2]: 2.9 nM
- IC50 [3]: 0.98 nM

SMILES: Cc1ccc2c(Oc3ncccc3-c3ccnc(N[C@H]4CCCNC4)n3)c(C)ccc2c1NS(=O)(=O)CCC(F)(F)F
- IC50 [1]: 42 nM
- IC50 [2]: 3.3 nM
- IC50 [3]: 0.66 nM

SMILES: O=S(=O)(Cc1ccccc1)Nc1c(F)cc(Oc2ncccc2-c2ccnc(N[C@@H]3CNC[C@@H](F)C3)n2)c(F)c1F
- Papp A→B at 3 h, 10 µM [5]: 8.7 ×10⁻⁶ cm/s
- Selectivity ratio [6]: 83
- IC50 [1]: 32 nM
- IC50 [2]: 4.3 nM
- IC50 [3]: 0.27 nM
- Activity [7]: Toxic
- Activity [8]: Toxic
- Activity [9]: Toxic
- Activity [10]: Non-Toxic
- fraction unbound at 4 h [11]: 0.029
- solubility kinetic [12]: 65 µM (≈ 38.3 µg/mL)
- Vdss [13]: 1.05 L/kg
- half-life [14]: 33 min
- bioavailability [15]: 149%
- Activity [16]: Toxic
- Activity [17]: Toxic
- Cmax [18]: 104 µg/mL
- AUC at 168 h [19]: 909 µg·h/mL
- Cmax [20]: 28.9 µg/mL
- AUC at 168 h [21]: 170 µg·h/mL
- IC50 [22]: 64 nM
- IC90 ([22]; time 24.5 hrs): 650 nM
- IC50 [23]: 8 nM
- IC90 ([23]; time 24.5 hrs): 79 nM
- IC50 [24]: 4 nM
- inhibition (Mus musculus [25]): Active
- inhibition (Mus musculus [26]): inactive
